Test results taken from the NIST ThermoML archive (doi:10.1007/s10765-008-0410-4).
Numbers after ± are expanded uncertainties.

Assay: xn = mol fraction of the nth substance listed
Conditions: Liquid, Vibrating tube method

CCCCn1cc[n+](C)c1.F[B-](F)(F)F [1-butyl-3-methylimidazolium tetrafluoroborate] + CCO
Conditions	mass density [kg/m3]
298.15 K, 120 kPa, x1 = 0.9152	1199.7 ± 1.1
298.15 K, 180 kPa, x1 = 0.7452	1171.71 ± 0.71
298.15 K, 210 kPa, x1 = 0.5384	1124.67 ± 0.37
298.15 K, 280 kPa, x1 = 1	1211.19 ± 1.3
298.15 K, 340 kPa, x1 = 0.3147	1044.49 ± 0.17
298.15 K, 390 kPa, x1 = 0.0701	875.91 ± 0.14
298.15 K, 4960 kPa, x1 = 0.7452	1174.16 ± 0.75
298.15 K, 5040 kPa, x1 = 0.5384	1127.45 ± 0.4
298.15 K, 5140 kPa, x1 = 0.9152	1202.06 ± 1.1
298.15 K, 5500 kPa, x1 = 0.0701	880.04 ± 0.16
298.15 K, 5630 kPa, x1 = 0.3147	1048.05 ± 0.18
298.15 K, 5640 kPa, x1 = 1	1213.63 ± 1.4
298.15 K, 10030 kPa, x1 = 0.9152	1204.31 ± 1.2
298.15 K, 10060 kPa, x1 = 0.7452	1176.71 ± 0.78
298.15 K, 10260 kPa, x1 = 0.5384	1130.36 ± 0.43
298.15 K, 10620 kPa, x1 = 1	1215.85 ± 1.4
298.15 K, 10910 kPa, x1 = 0.3147	1051.47 ± 0.19
298.15 K, 11370 kPa, x1 = 0.0701	884.58 ± 0.17
298.15 K, 15130 kPa, x1 = 0.0701	887.37 ± 0.18
298.15 K, 15210 kPa, x1 = 0.7452	1179.21 ± 0.82
298.15 K, 15280 kPa, x1 = 0.3147	1054.2 ± 0.19
298.15 K, 15320 kPa, x1 = 0.5384	1133.1 ± 0.46
298.15 K, 15340 kPa, x1 = 1	1217.77 ± 1.4
298.15 K, 15620 kPa, x1 = 0.9152	1206.82 ± 1.2
298.15 K, 20090 kPa, x1 = 0.5384	1135.59 ± 0.49
298.15 K, 20360 kPa, x1 = 0.7452	1181.64 ± 0.87
298.15 K, 20480 kPa, x1 = 0.9152	1208.95 ± 1.3
298.15 K, 20540 kPa, x1 = 0.3147	1057.36 ± 0.21
298.15 K, 20640 kPa, x1 = 1	1220.29 ± 1.5
298.15 K, 21070 kPa, x1 = 0.0701	891.6 ± 0.19
298.15 K, 25270 kPa, x1 = 1	1222.18 ± 1.5
298.15 K, 25410 kPa, x1 = 0.7452	1183.95 ± 0.91
298.15 K, 25470 kPa, x1 = 0.3147	1060.21 ± 0.22
298.15 K, 25570 kPa, x1 = 0.0701	894.66 ± 0.2
298.15 K, 26070 kPa, x1 = 0.5384	1138.61 ± 0.53
298.15 K, 26140 kPa, x1 = 0.9152	1211.36 ± 1.3
298.15 K, 29870 kPa, x1 = 0.9152	1212.91 ± 1.4
298.15 K, 30050 kPa, x1 = 1	1223.93 ± 1.6
298.15 K, 30070 kPa, x1 = 0.5384	1140.56 ± 0.55
298.15 K, 30090 kPa, x1 = 0.7452	1186.03 ± 0.95
298.15 K, 30620 kPa, x1 = 0.0701	897.94 ± 0.22
298.15 K, 31120 kPa, x1 = 0.3147	1063.34 ± 0.23
298.15 K, 35410 kPa, x1 = 0.5384	1143.07 ± 0.59
298.15 K, 35410 kPa, x1 = 1	1226.07 ± 1.6
298.15 K, 35480 kPa, x1 = 0.7452	1188.36 ± 0.99
298.15 K, 35740 kPa, x1 = 0.9152	1215.3 ± 1.4
298.15 K, 35800 kPa, x1 = 0.3147	1065.82 ± 0.24
298.15 K, 35860 kPa, x1 = 0.0701	901.17 ± 0.23
298.15 K, 39340 kPa, x1 = 0.0701	903.23 ± 0.23
298.15 K, 39610 kPa, x1 = 1	1227.81 ± 1.7
298.15 K, 39770 kPa, x1 = 0.3147	1067.84 ± 0.26
298.15 K, 39920 kPa, x1 = 0.7452	1190.22 ± 1
298.15 K, 39980 kPa, x1 = 0.5384	1145.14 ± 0.62
298.15 K, 39980 kPa, x1 = 0.9152	1216.97 ± 1.4
323.15 K, 290 kPa, x1 = 0.0701	856.52 ± 0.15
323.15 K, 340 kPa, x1 = 0.3147	1026.83 ± 0.16
323.15 K, 420 kPa, x1 = 0.7452	1153.47 ± 0.69
323.15 K, 510 kPa, x1 = 0.9152	1181.35 ± 1.1
323.15 K, 730 kPa, x1 = 1	1192.89 ± 1.3
323.15 K, 850 kPa, x1 = 0.5384	1106.94 ± 0.36
323.15 K, 4870 kPa, x1 = 0.9152	1183.6 ± 1.1
323.15 K, 4890 kPa, x1 = 0.5384	1109.43 ± 0.38
323.15 K, 5010 kPa, x1 = 0.3147	1030.15 ± 0.17
323.15 K, 5060 kPa, x1 = 0.7452	1156.05 ± 0.72
323.15 K, 5410 kPa, x1 = 0.0701	861.09 ± 0.16
323.15 K, 5640 kPa, x1 = 1	1195.3 ± 1.3
323.15 K, 9860 kPa, x1 = 0.5384	1112.4 ± 0.41
323.15 K, 10080 kPa, x1 = 0.9152	1186.23 ± 1.1
323.15 K, 10110 kPa, x1 = 0.3147	1033.63 ± 0.17
323.15 K, 10610 kPa, x1 = 1	1197.71 ± 1.4
323.15 K, 10730 kPa, x1 = 0.0701	865.61 ± 0.18
323.15 K, 10740 kPa, x1 = 0.7452	1159.11 ± 0.76
323.15 K, 14870 kPa, x1 = 0.5384	1115.29 ± 0.43
323.15 K, 15080 kPa, x1 = 0.7452	1161.39 ± 0.79
323.15 K, 15210 kPa, x1 = 0.9152	1188.77 ± 1.2
323.15 K, 15410 kPa, x1 = 0.3147	1037.07 ± 0.18
323.15 K, 15430 kPa, x1 = 0.0701	869.4 ± 0.19
323.15 K, 15440 kPa, x1 = 1	1200.01 ± 1.4
323.15 K, 20160 kPa, x1 = 0.5384	1118.22 ± 0.46
323.15 K, 20310 kPa, x1 = 0.7452	1164.06 ± 0.83
323.15 K, 20330 kPa, x1 = 0.0701	873.16 ± 0.21
323.15 K, 20460 kPa, x1 = 1	1202.37 ± 1.4
323.15 K, 20470 kPa, x1 = 0.9152	1191.31 ± 1.2
323.15 K, 20750 kPa, x1 = 0.3147	1040.38 ± 0.19
323.15 K, 25010 kPa, x1 = 0.9152	1193.45 ± 1.2
323.15 K, 25120 kPa, x1 = 0.7452	1166.45 ± 0.86
323.15 K, 25360 kPa, x1 = 1	1204.64 ± 1.5
323.15 K, 25380 kPa, x1 = 0.0701	876.83 ± 0.22
323.15 K, 25840 kPa, x1 = 0.5384	1121.23 ± 0.49
323.15 K, 26290 kPa, x1 = 0.3147	1043.62 ± 0.2
323.15 K, 30070 kPa, x1 = 0.9152	1195.79 ± 1.3
323.15 K, 30080 kPa, x1 = 0.7452	1168.84 ± 0.9
323.15 K, 30260 kPa, x1 = 0.5384	1123.49 ± 0.52
323.15 K, 30330 kPa, x1 = 0.0701	880.21 ± 0.24
323.15 K, 30640 kPa, x1 = 0.3147	1046.04 ± 0.21
323.15 K, 30740 kPa, x1 = 1	1207.09 ± 1.5
323.15 K, 34740 kPa, x1 = 0.0701	883.06 ± 0.25
323.15 K, 34960 kPa, x1 = 0.9152	1198 ± 1.3
323.15 K, 35070 kPa, x1 = 0.7452	1171.16 ± 0.94
323.15 K, 35260 kPa, x1 = 0.3147	1048.48 ± 0.22
323.15 K, 35420 kPa, x1 = 0.5384	1126.01 ± 0.55
323.15 K, 35650 kPa, x1 = 1	1209.29 ± 1.6
323.15 K, 39850 kPa, x1 = 1	1211.14 ± 1.6
323.15 K, 40000 kPa, x1 = 0.9152	1200.22 ± 1.4
323.15 K, 40010 kPa, x1 = 0.0701	886.25 ± 0.26
323.15 K, 40010 kPa, x1 = 0.7452	1173.4 ± 0.98
323.15 K, 40020 kPa, x1 = 0.5384	1128.17 ± 0.57
323.15 K, 40120 kPa, x1 = 0.3147	1050.91 ± 0.23
348.15 K, 210 kPa, x1 = 1	1174.44 ± 1.2
348.15 K, 230 kPa, x1 = 0.3147	1007.5 ± 0.16
348.15 K, 380 kPa, x1 = 0.7452	1134.96 ± 0.66
348.15 K, 450 kPa, x1 = 0.5384	1088.13 ± 0.34
348.15 K, 460 kPa, x1 = 0.9152	1163.17 ± 1
348.15 K, 520 kPa, x1 = 0.0701	835.75 ± 0.15
348.15 K, 5010 kPa, x1 = 0.5384	1091.32 ± 0.36
348.15 K, 5040 kPa, x1 = 0.9152	1165.81 ± 1
348.15 K, 5340 kPa, x1 = 0.0701	840.67 ± 0.17
348.15 K, 5360 kPa, x1 = 0.7452	1138.08 ± 0.69
348.15 K, 5740 kPa, x1 = 0.3147	1011.89 ± 0.16
348.15 K, 5960 kPa, x1 = 1	1177.75 ± 1.3
348.15 K, 10060 kPa, x1 = 0.5384	1094.71 ± 0.38
348.15 K, 10090 kPa, x1 = 0.7452	1140.95 ± 0.72
348.15 K, 10480 kPa, x1 = 1	1180.3 ± 1.3
348.15 K, 11210 kPa, x1 = 0.9152	1169.27 ± 1.1
348.15 K, 11420 kPa, x1 = 0.3147	1016.16 ± 0.16
348.15 K, 11710 kPa, x1 = 0.0701	846.75 ± 0.19
348.15 K, 15080 kPa, x1 = 0.9152	1171.38 ± 1.1
348.15 K, 15210 kPa, x1 = 0.5384	1098.01 ± 0.41
348.15 K, 15420 kPa, x1 = 0.7452	1144.07 ± 0.76
348.15 K, 15430 kPa, x1 = 1	1182.72 ± 1.3
348.15 K, 15740 kPa, x1 = 0.3147	1019.22 ± 0.17
348.15 K, 15840 kPa, x1 = 0.0701	850.45 ± 0.21
348.15 K, 20060 kPa, x1 = 0.5384	1100.98 ± 0.43
348.15 K, 20080 kPa, x1 = 0.7452	1146.71 ± 0.79
348.15 K, 20550 kPa, x1 = 0.0701	854.43 ± 0.22
